From ChEMBL document CHEMBL1148208, “Aureoverticillactam, a novel 22-atom macrocyclic lactam from the marine actinomycete Streptomyces aureoverticillatus” (J Nat Prod, 2004)

Legend:
Format in all cases: functional, cell-based
[1] = system: B16-F10; assay: Cytotoxicity against mouse B16F10 cells after 48 hrs; conditions: B16-F10, 48 h
[2] = system: Jurkat; assay: Cytotoxicity against human Jurkat cells after 48 hrs
[3] = system: HT-29; assay: Cytotoxicity against human HT29 cells after 48 hrs; conditions: HT-29, 48 h

Work on `CCC/C=C/CC1C/C=C/C=C(C)/C=C/C=C\C(O)CC(O)C(O)/C=C/C=C/C=C/C(=O)N1` (stereo not drawn) [AUREOVERTICILLACTAM] yielded an EC50 [1] of 2200 nM, an EC50 [2] of 2300 nM and an EC50 [3] of 3600 nM.
